Measurements published in patent publication US10278969B2, “Pharmaceutical dosage forms” (Novartis AG, priority 2013, dated 2019).

Experiment: Chemical stability: hydrolysis degradation of the Compound on processing
Format: physicochemical
Conditions: urea bond cleavage into aniline and aminopyrimidine degradants
From the text: In view of the above mentioned difficulties, the inventors tried to compact the voluminous Compound together with excipients without the use of aqueous media. […] There could be various root causes for the degradation problem. The inventor had run numerous experimental trials to identify the cause.

Structure (SMILES): CCN1CCN(c2ccc(Nc3cc(N(C)C(=O)Nc4c(Cl)c(OC)cc(OC)c4Cl)ncn3)cc2)CC1 [the Compound, 3-(2,6-Dichloro-3,5-dimethoxy-phenyl)-1-{6-[4-(4-ethyl-piperazin-1-yl)-phenylamino]-pyrimidin-4-yl}-1-methyl-urea]
- Chemical stability (hydrolysis degradation products): prone to hydrolysis
